{"source": "patent US20230346678A1", "about": "“TOPICAL COMPOSITIONS CONTAINING VITAMIN C” (priority 2022, published 2023)", "experiment": "Oxygen radical absorbance capacity (ORAC) assay", "format": "biochemical", "method": "The combined anti-oxidant effects of combinations of ascorbic acid with various other known anti-oxidants was tested using the oxygen radical absorbance capacity (ORAC) assay according to the method described by Ou B, Hampsch Woodill M, Prior R. L. Development and validation of an improved oxygen radical absorbance capacity assay using fluorescein as the fluorescent probe. J Agric Food Chem. 2001, 49:4619 (using a slightly different ex/em wavelength readout and a narrower range of Trolox standards). This assay measures the ability of anti-oxidant “chain breakers” to inhibit the decline in disodium fluorescein (FL) fluorescence that is induced by the peroxyl radical generator, 2′,2′-Azobis (2-amidinopropane) dihydrochloride (AAPH). Distilled water was used as the negative control. Trolox (6-hydroxy-2,5,7,8-tetramethylchroman-2-carboxylic acid, a water-soluble analog of vitamin E sold by Hoffman-LaRoche having antioxidant properties) was used as the positive control.\nThe final ORAC values were calculated from the regression equation of net areas under the FL decay curve using a formula where Area Under the Curve (AUC)=1+(Point 1+Point 2+Point 3+ . . . +Point 15)/Point 1. The Trolox standards were then plotted as micromoles over AUC. The samples were solved using their AUC yielding the values in micromole (μmol) Trolox equivalent (TE) per ml. Applied BioSystems Cytofluor 4000 fluorometer & software was used for quantification. ORAC values of the test materials were expressed in μmoles TE/ml (TE=Trolox Equivalents).\nAll ingredients were stored at room temperature and then diluted with distilled water into aqueous stock solutions for testing. Further dilutions were made in distilled water within 24 h from testing.", "key": {"[1]": {"conditions": "second test run (second Table 3)"}}, "data": [{"smiles": "O=C(O[C@@H]1Cc2c(O)cc(O)cc2O[C@@H]1c1cc(O)c(O)c(O)c1)c1cc(O)c(O)c(O)c1", "note": "[0.1% EGCG, epigallocatechin gallate]", "values": [{"measurement": "ORAC", "setting": "first test run (first Table 3)", "value": 7, "unit": "μmoles TE/ml"}]}, {"smiles": "CCOC1=C(O)C(=O)O[C@@H]1[C@@H](O)CO", "note": "[0.5% Ethyl L-Ascorbic Acid, Ethyl L-Ascorbic Acid]", "values": [{"measurement": "ORAC", "setting": "first test run (first Table 3)", "value": 13, "unit": "μmoles TE/ml"}, {"measurement": "ORAC", "setting": "[1]", "value": 7, "unit": "μmoles TE/ml"}]}, {"smiles": "COc1cc(CCC(=O)CC(=O)CCc2ccc(O)c(OC)c2)ccc1O", "note": "[0.5% Tetrahydrodiferuloyl-methane, Tetrahydrodiferuloyl-methane]", "values": [{"measurement": "ORAC", "setting": "first test run (first Table 3)", "value": 4, "unit": "μmoles TE/ml"}]}, {"smiles": "O=C1O[C@H]([C@@H](O)CO)C([O-])=C1OP(=O)([O-])[O-].[Na+].[Na+].[Na+]", "note": "[0.5% sodium ascorbyl phosphate, sodium ascorbyl phosphate]", "values": [{"measurement": "ORAC", "setting": "first test run (first Table 3)", "value": 10, "unit": "μmoles TE/ml"}]}, {"smiles": "Cn1c(=O)c2c(ncn2C)n(C)c1=O", "note": "[2% caffeine, caffeine]", "values": [{"measurement": "ORAC", "setting": "first test run (first Table 3)", "value": 10, "unit": "μmoles TE/ml"}, {"measurement": "ORAC", "setting": "[1]", "value": 0, "unit": "μmoles TE/ml"}]}, {"smiles": "O=C1O[C@H]([C@@H](O)CO)C(O)=C1O", "note": "[10% ascorbic acid, ascorbic acid]", "values": [{"measurement": "ORAC", "setting": "first test run (first Table 3)", "value": 751, "unit": "μmoles TE/ml"}, {"measurement": "ORAC", "setting": "[1]", "value": 838, "unit": "μmoles TE/ml"}]}, {"smiles": "Cc1c(C)c2c(c(C)c1O)CCC(C)(C(=O)O)O2", "note": "(centres unmarked) [Trolox, 6-hydroxy-2,5,7,8-tetramethylchroman-2-carboxylic acid]", "values": [{"measurement": "ORAC", "setting": "first test run, positive control", "value": 3940, "unit": "µmol/g"}, {"measurement": "ORAC", "setting": "second test run, positive control", "value": 4368, "unit": "µmol/g"}]}]}
